Here are results for 26 molecules from US12617797B2, “Substituted pyrazolo [1,5-a]pyrimidines having multimodal activity against pain” (ESTEVE PHARMACEUTICALS, S.A., priority 2020, dated 2026).

In one test the target is T1, Human σ1 receptor (Homo sapiens, UniProt Q99720).
T1 construct: expressed in transfected cells; host or cells: HEK-293
The test can be described thus: Human σ1 receptor radioligand assay ([3H](+)-pentazocine binding, transfected HEK-293 membranes). The settings on record: binding to σ1 receptor expressed as Ki; + also covers inhibition between 1% and 50%; read-out: σ-1 binding. How it is done: Human σ1 Receptor Radioligand Assay
Transfected HEK-293 membranes (7 μg) were incubated with 5 nM of [^3H](+)-pentazocine in assay buffer containing Tris-HCl 50 mM at pH 8. NBS (non-specific binding) was measured by adding 10 μM haloperidol. The binding of the test compound was measured at either one concentration (% inhibition at 1 or 10 μM) or five different concentrations to determine affinity values (Ki). Plates were incubated at 37° C. for 120 minutes. After the incubation period, the reaction mix was then transferred to MultiScreen HTS, FC plates (Millipore), filtered and plates were washed 3 times with ice-cold 10 mM Tris-HCL (pH7.4). Filters were dried and counted at approximately 40% efficiency in a MicroBeta scintillation counter (Perkin-Elmer) using EcoScint liquid scintillation cocktail.

In test [1] the target is Human α2δ-1 subunit of Cav2.2 calcium channel (Homo sapiens, UniProt P54289). The experiment in a line: Human α2δ-1 subunit of Cav2.2 calcium channel assay ([3H]-gabapentin binding). The settings on record: binding to the α2δ-1 subunit of voltage-gated calcium channels expressed as Ki; + also covers inhibition between 1% and 50%. On the procedure:
Biological Activity Pharmacological Study Human α2δ-1 Subunit of Cav2.2 Calcium Channel Assay
Human α2δ-1 enriched membranes (2.5 μg) were incubated with 15 nM of radiolabeled [^3H]-Gabapentin in assay buffer containing Hepes-KOH 10 mM, pH 7.4. NSB (non specific binding) was measured by adding 10 μM pregabalin. The binding of the test compound was measured at either one concentration (% inhibition at 1 or 10 μM) or five different concentrations to determine affinity values (Ki). After 60 min incubation at 27° C., binding reaction was terminated by filtering through Multiscreen GF/C (Millipore) presoaked in 0.5% polyethyleneimine in Vacuum Manifold Station, followed by 3 washes with ice-cold filtration buffer containing 50 mM Tris-HCl, pH 7.4. Filter plates were dried at 60° C. for 1 h and 30 μL of scintillation cocktail were added to each well before radioactivity reading. Readings were performed in a Trilux 1450 Microbeta radioactive counter (Perkin Elmer).

Some results are limits rather than exact numbers.

T1 sequence (Q99720 whole entry): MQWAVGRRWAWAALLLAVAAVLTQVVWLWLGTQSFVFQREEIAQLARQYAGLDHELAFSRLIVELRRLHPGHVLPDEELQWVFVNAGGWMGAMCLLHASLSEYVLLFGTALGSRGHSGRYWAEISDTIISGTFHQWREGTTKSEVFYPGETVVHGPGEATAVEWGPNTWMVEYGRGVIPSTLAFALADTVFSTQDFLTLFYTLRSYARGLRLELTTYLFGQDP
Human α2δ-1 subunit of Cav2.2 calcium channel, sequence (P54289 25-1103): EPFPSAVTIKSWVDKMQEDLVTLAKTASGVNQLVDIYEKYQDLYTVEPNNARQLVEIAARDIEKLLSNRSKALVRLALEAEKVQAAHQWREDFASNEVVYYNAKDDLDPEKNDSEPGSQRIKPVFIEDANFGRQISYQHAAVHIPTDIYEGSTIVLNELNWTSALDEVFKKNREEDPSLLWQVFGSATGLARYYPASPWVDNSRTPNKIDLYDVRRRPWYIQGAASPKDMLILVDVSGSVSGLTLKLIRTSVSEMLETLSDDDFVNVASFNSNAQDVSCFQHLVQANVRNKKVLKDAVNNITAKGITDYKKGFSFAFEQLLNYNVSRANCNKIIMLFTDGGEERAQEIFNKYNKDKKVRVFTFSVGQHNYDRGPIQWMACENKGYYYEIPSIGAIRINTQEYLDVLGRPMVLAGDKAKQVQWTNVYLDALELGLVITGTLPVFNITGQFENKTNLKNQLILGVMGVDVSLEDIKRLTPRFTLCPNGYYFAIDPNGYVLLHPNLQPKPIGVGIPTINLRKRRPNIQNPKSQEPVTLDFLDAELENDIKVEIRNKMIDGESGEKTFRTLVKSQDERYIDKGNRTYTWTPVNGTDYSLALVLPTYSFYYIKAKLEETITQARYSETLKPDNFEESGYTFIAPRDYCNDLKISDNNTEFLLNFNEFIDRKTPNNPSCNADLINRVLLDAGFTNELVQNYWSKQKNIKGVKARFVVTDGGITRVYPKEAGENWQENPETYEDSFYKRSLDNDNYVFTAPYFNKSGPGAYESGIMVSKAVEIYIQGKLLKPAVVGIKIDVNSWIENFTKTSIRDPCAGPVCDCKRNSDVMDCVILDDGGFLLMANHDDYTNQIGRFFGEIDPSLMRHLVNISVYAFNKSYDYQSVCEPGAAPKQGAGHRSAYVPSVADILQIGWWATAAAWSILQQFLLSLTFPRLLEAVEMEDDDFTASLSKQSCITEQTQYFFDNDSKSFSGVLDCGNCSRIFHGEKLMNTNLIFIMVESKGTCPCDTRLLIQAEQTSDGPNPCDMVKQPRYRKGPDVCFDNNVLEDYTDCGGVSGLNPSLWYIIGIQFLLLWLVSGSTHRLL

On to `Cc1nn2c(C3CCCN(CCC(C)C)C3)ccnc2c1-c1ccncc1` (stereo not drawn) [Example 127, 7-(1-Isopentylpiperidin-3-yl)-2-methyl-3-(pyridin-4-yl)pyrazolo[1,5-a]pyrimidine], for which the figures for the Ki (at Human σ1 receptor; in test [1]) were less than 500 nM and more than 5 µM, respectively.

Consider `CN(c1cc2nccc(C3CCCN(Cc4ccccc4)C3)n2n1)C1CCNCC1` (stereo not drawn) [Example 82, 7-(1-Benzylpiperidin-3-yl)-N-methyl-N-(piperidin-4-yl)pyrazolo[1,5-a]pyrimidin-2-amine], for which the Ki at Human σ1 receptor was more than 1000 nM; in test [1], 0.5 to 5 µM.

`Cc1nn2c([C@@H]3CCCN(Cc4cccc(C#N)c4)C3)ccnc2c1CNCC1CCOCC1` [Example 209, (R)-3-((3-(2-methyl-3-((((tetrahydro-2H-pyran-4-yl)methyl)amino)methyl)pyrazolo[1,5-a]pyrimidin-7-yl)piperidin-1-yl)methyl)benzonitrile]: the Ki at Human σ1 receptor is less than 500 nM; in test [1], more than 5 µM.

For `Cc1nn2c(C3CCCN(Cc4cccc(F)c4)C3)ccnc2c1CNCC1CCOCC1` (stereo not drawn) [Example 181, 1-(7-(1-(3-Fluorobenzyl)piperidin-3-yl)-2-methylpyrazolo[1,5-a]pyrimidin-3-yl)-N-((tetrahydro-2H-pyran-4-yl)methyl)methanamine], the Ki on Human σ1 receptor is less than 500 nM; in test [1] it was 0.5 to 5 µM.

Turning to `Cc1nn2c(C3CCCN(Cc4ccc(Cl)cc4)C3)ccnc2c1-c1cccc(C(=O)N(C)C)c1` (stereo not drawn) [Example 128, 3-(7-(1-(4-Chlorobenzyl)piperidin-3-yl)-2-methylpyrazolo[1,5-a]pyrimidin-3-yl)-N,N-dimethylbenzamide], the values for the Ki (on Human σ1 receptor; in test [1]) were more than 1000 nM and more than 5 µM, respectively.

As to `CCc1nn2c(C3CCCN(Cc4ccc(Cl)cc4)C3)ccnc2c1CNCC1CCOCC1` (stereo not drawn) [Example 187, 1-(7-(1-(4-Chlorobenzyl)piperidin-3-yl)-2-ethylpyrazolo[1,5-a]pyrimidin-3-yl)-N-((tetrahydro-2H-pyran-4-yl)methyl)methanamine], the values for the Ki (at Human σ1 receptor; in test [1]) were less than 500 nM and less than 0.5 µM, respectively.

Consider `Cc1nn2c(C3CCCN(Cc4ccc(Cl)cc4)C3)ccnc2c1-c1cnn(C)c1` (stereo not drawn) [Example 132, 7-(1-(4-Chlorobenzyl)piperidin-3-yl)-2-methyl-3-(1-methyl-1H-pyrazol-4-yl)pyrazolo[1,5-a]pyrimidine], for which the Ki at Human σ1 receptor is more than 1000 nM; in test [1], 0.5 to 5 µM.

On to `Cc1nn2c([C@H]3CCCN(Cc4cccc(C#N)c4)C3)ccnc2c1CNCC1CCOCC1` [Example 208, (S)-3-((3-(2-Methyl-3-((((tetrahydro-2H-pyran-4-yl)methyl)amino)methyl)pyrazolo[1,5-a]pyrimidin-7-yl)piperidin-1-yl)methyl)benzonitrile], for which the Ki on Human σ1 receptor was less than 500 nM; in test [1] it was more than 5 µM.

Regarding `Cc1nn2c([C@H]3CCCN(Cc4ccccc4)C3)ccnc2c1CNCC1CCOCC1` [Example 204, (S)-1-(7-(1-Benzylpiperidin-3-yl)-2-methylpyrazolo[1,5-a]pyrimidin-3-yl)-N-((tetrahydro-2H-pyran-4-yl)methyl)methanamine], the Ki is less than 500 nM on Human σ1 receptor and 0.5 to 5 µM in test [1].

Take `Cc1nn2c(C3CCCN(Cc4ccc(Cl)cc4)C3)ccnc2c1CN(C)Cc1c(F)cccc1F` (stereo not drawn) [Example 229, 1-(7-(1-(4-Chlorobenzyl)piperidin-3-yl)-2-methylpyrazolo[1,5-a]pyrimidin-3-yl)-N-(2,6-difluorobenzyl)-N-methylmethanamine]: the Ki was 500 to 1000 nM at Human σ1 receptor and 0.5 to 5 µM in test [1].

For `CNCCN(C)c1cc2nccc(C3CCCN(Cc4ccccc4)C3)n2n1` (stereo not drawn) [Example 81, N^1-(7-(1-Benzylpiperidin-3-yl)pyrazolo[1,5-a]pyrimidin-2-yl)-N^1,N^2-dimethylethane-1,2-diamine], the Ki at Human σ1 receptor was more than 1000 nM; in test [1], 0.5 to 5 µM.

For `Cc1nn2c(C3CCCN(Cc4ccc(Cl)cc4)C3)ccnc2c1CNCC(C)C` (stereo not drawn) [Example 160, N-((7-(1-(4-Chlorobenzyl)piperidin-3-yl)-2-methylpyrazolo[1,5-a]pyrimidin-3-yl)methyl)-2-methylpropan-1-amine], the Ki was less than 500 nM at Human σ1 receptor and 0.5 to 5 µM in test [1].

For the molecule `Cn1cc(-c2cc3nccc(C4CCCN(Cc5ccccc5)C4)n3n2)cn1` (stereo not drawn) [Example 25, 7-(1-Benzylpiperidin-3-yl)-2-(1-methyl-1H-pyrazol-4-yl)pyrazolo[1,5-a]pyrimidine], the values for the Ki (on Human σ1 receptor; in test [1]) were more than 1000 nM and more than 5 µM, respectively.

Consider `c1ccc(CN2CCCC(c3ccnc4c(-c5ccncc5)cnn34)C2)cc1` (stereo not drawn) [Example 36, 7-(1-Benzylpiperidin-3-yl)-3-(pyridin-4-yl)pyrazolo[1,5-a]pyrimidine], for which the Ki on Human σ1 receptor was 500 to 1000 nM; in test [1] it was 0.5 to 5 µM.

`Cc1nn2c(C3CCCN(Cc4ccc(Cl)cc4)C3)ccnc2c1CN(C)Cc1ccc(CO)cc1` (stereo not drawn) [Example 230, (4-((((7-(1-(4-Chlorobenzyl)piperidin-3-yl)-2-methylpyrazolo[1,5-a]pyrimidin-3-yl)methyl)(methyl)amino)methyl)phenyl)methanol]: the Ki on Human σ1 receptor is less than 500 nM; in test [1] it was 0.5 to 5 µM.

Consider `COc1ncccc1-c1cc2nccc(C3CCCN(Cc4ccc(Cl)c(Cl)c4)C3)n2n1` (stereo not drawn) [Example 118, 7-(1-(3,4-Dichlorobenzyl)piperidin-3-yl)-2-(2-methoxypyridin-3-yl)pyrazolo[1,5-a]pyrimidine], for which the Ki is more than 1000 nM at Human σ1 receptor and more than 5 µM in test [1].

Take `Cc1nn2c(C3CCCN(Cc4ccc(Cl)cc4Cl)C3)ccnc2c1CN(C)C` (stereo not drawn) [Example 186, 1-(7-(1-(2,4-Dichlorobenzyl)piperidin-3-yl)-2-methylpyrazolo[1,5-a]pyrimidin-3-yl)-N,N-dimethylmethanamine]: the figures for the Ki (on Human σ1 receptor; in test [1]) were less than 500 nM and more than 5 µM, respectively.

For the molecule `COc1ncccc1-c1c(C)nn2c(C3CCCN(Cc4ccccc4)C3)ccnc12` (stereo not drawn) [Example 43, 7-(1-Benzylpiperidin-3-yl)-3-(2-methoxypyridin-3-yl)-2-methylpyrazolo[1,5-a]pyrimidine], the Ki at Human σ1 receptor is more than 1000 nM; in test [1], 0.5 to 5 µM.

Turning to `c1ccc(CN2CCCC(c3ccnc4cc(-c5cccnc5)nn34)C2)cc1` (stereo not drawn) [Example 17, 7-(1-Benzylpiperidin-3-yl)-2-(pyridin-3-yl)pyrazolo[1,5-a]pyrimidine], the results for the Ki (at Human σ1 receptor; in test [1]) were 500 to 1000 nM and 0.5 to 5 µM, respectively.

In the case of `Cc1nn2c(C3CCCN(Cc4ccc(Cl)cc4)C3)ccnc2c1CNCCC1CCOCC1` (stereo not drawn) [Example 178, N-((7-(1-(4-Chlorobenzyl)piperidin-3-yl)-2-methylpyrazolo[1,5-a]pyrimidin-3-yl)methyl)-2-(tetrahydro-2H-pyran-4-yl)ethan-1-amine], the Ki was less than 500 nM on Human σ1 receptor and 0.5 to 5 µM in test [1].

As to `CCc1cc(-c2c(C)nn3c(C4CCCN(Cc5ccccc5)C4)ccnc23)ccn1` (stereo not drawn) [Example 54, 7-(1-Benzylpiperidin-3-yl)-3-(2-ethylpyridin-4-yl)-2-methylpyrazolo[1,5-a]pyrimidine], the results for the Ki (on Human σ1 receptor; in test [1]) were more than 1000 nM and 0.5 to 5 µM, respectively.

As to `Cc1nn2c(C3CCCN(Cc4ccc(Cl)cc4)C3)ccnc2c1-c1ccnc(N)n1` (stereo not drawn) [Example 140, 4-(7-(1-(4-Chlorobenzyl)piperidin-3-yl)-2-methylpyrazolo[1,5-a]pyrimidin-3-yl)pyrimidin-2-amine], the Ki was more than 1000 nM at Human σ1 receptor and 0.5 to 5 µM in test [1].

Take `Cc1nn2c(C3CCCN(Cc4ccc(Cl)cc4)C3)ccnc2c1-c1ccncn1` (stereo not drawn) [Example 139, 7-(1-(4-Chlorobenzyl)piperidin-3-yl)-2-methyl-3-(pyrimidin-4-yl)pyrazolo[1,5-a]pyrimidine]: the figures for the Ki (on Human σ1 receptor; in test [1]) were more than 1000 nM and more than 5 µM, respectively.

With `Cc1nn2c([C@H]3CCCN(Cc4ccc(Cl)cc4)C3)ccnc2c1CNCC1CCOCC1` [Example 199, (S)-1-(7-(1-(4-Chlorobenzyl)piperidin-3-yl)-2-methylpyrazolo[1,5-a]pyrimidin-3-yl)-N-((tetrahydro-2H-pyran-4-yl)methyl)methanamine], the Ki at Human σ1 receptor is less than 500 nM; in test [1] it was less than 0.5 µM.

As to `Cc1ccc(CNCc2c(C)nn3c(C4CCCN(Cc5ccc(Cl)cc5)C4)ccnc23)s1` (stereo not drawn) [Example 150, 1-(7-(1-(4-Chlorobenzyl)piperidin-3-yl)-2-methylpyrazolo[1,5-a]pyrimidin-3-yl)-N-((5-methylthiophen-2-yl)methyl)methanamine], the Ki at Human σ1 receptor was less than 500 nM; in test [1], 0.5 to 5 µM.

In the case of `CC(=O)N1CCC(CNCc2c(Cl)nn3c([C@@H]4CCCN(Cc5ccccc5)C4)ccnc23)CC1` [Example 217, (R)-1-(4-((((7-(1-benzylpiperidin-3-yl)-2-chloropyrazolo[1,5-a]pyrimidin-3-yl)methyl)amino)methyl)piperidin-1-yl)ethan-1-one], the Ki in test [1] was more than 5 µM.
